Here are results for 2 compounds from US5622976A, “Oxadiazole derivatives having acetylcholinesterase-inhibitory and muscarinic agonist activity” (priority 1991, dated 1997).

This experiment addresses T1, acetylcholinesterase (Rattus norvegicus, UniProt P37136).
T1 construct: obtained from rat's corpus striatum; from tissue; host or cells: rat corpus striatum
Description: Inhibition of acetylcholinesterase (enzyme assay). In kind it is biochemical. The following applies: acetylcholinesterase from rat's corpus striatum. The procedure:
The ability to inhibit acetylcholinesterase was determined by the method (enzyme assay) described in Clinica Chimica Acta, 115 (1981) 163-170. The acetylcholinesterase used in this test was obtained from rat's corpus striatum.

T1 sequence (P37136 32-614): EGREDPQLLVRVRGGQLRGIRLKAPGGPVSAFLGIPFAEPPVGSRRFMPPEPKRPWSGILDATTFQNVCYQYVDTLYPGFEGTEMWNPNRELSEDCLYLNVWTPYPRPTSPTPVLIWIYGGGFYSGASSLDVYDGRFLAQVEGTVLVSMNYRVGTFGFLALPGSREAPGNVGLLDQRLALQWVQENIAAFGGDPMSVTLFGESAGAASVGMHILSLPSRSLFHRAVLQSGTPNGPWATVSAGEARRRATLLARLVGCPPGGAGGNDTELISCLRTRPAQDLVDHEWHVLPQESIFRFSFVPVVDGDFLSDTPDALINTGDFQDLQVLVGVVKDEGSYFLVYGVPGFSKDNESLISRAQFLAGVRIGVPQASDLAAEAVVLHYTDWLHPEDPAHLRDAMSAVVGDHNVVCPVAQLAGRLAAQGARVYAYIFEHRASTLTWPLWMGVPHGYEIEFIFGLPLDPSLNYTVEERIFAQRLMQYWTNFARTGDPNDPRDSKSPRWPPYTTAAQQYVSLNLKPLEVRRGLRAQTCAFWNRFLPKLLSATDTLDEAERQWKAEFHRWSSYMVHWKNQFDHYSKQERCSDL

Usually IC50 stands for the concentration that inhibits the measured activity by half. Low values mean greater potency in that assay, high ones weaker potency in that assay. As for `O=C(NCCC1CCN(Cc2ccccc2)CC1)c1noc(C2CN3CCC2CC3)n1` (centres unmarked) [(a)], the half-maximal inhibitory concentration (IC50) stood at 8 nM.

With `O=C(NCCC1CCN(Cc2ccccc2)CC1)c1noc(-c2ccc([N+](=O)[O-])cc2)n1` [(b)], 1.7 nM corresponded to half-maximal inhibition (IC50).
